These molecules were tested against T1, AM2 receptor (1321N1 cells transfected with CALCRL+RAMP3) (Homo sapiens, UniProt O60896+Q16602) (assay: AM2 receptor inhibition, LANCE cAMP agonist-antagonist competition assay). Details: inhibition of AM induced cAMP activation, read-out: AM2 D2 protocol: pIC50 (converted).
T1 construct: host or cells: 1321N1 cells
T1 sequence (Q16602 23-461): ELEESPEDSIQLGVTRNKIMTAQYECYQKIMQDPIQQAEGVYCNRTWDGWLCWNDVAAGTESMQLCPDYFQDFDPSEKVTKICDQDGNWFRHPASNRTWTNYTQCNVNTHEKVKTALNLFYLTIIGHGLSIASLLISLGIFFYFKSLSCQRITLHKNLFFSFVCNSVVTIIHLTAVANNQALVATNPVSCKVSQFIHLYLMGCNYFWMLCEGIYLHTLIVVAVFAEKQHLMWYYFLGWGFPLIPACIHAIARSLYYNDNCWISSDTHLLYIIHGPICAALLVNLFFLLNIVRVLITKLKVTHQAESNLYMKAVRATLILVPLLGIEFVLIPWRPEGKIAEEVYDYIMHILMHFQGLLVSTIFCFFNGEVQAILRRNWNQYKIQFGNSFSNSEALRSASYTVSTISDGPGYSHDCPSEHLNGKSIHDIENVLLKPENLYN
T1 sequence (O60896 24-148): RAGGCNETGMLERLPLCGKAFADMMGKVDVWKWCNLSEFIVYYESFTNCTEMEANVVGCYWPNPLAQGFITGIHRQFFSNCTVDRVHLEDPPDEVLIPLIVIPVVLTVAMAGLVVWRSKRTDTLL
Format: cell-based
Outline: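 1321N1 cells co-expressing CALCRL and RAMP3 (2500/well) were preincubated with compound for 30 min at room temperature, then stimulated with adrenomedullin at its EC50 dose for 15 min in HBSS/HEPES/BSA buffer, pH 7.4. cAMP was measured by LANCE TR-FRET and normalised to forskolin (100%) and vehicle (0%) controls.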
In the case of CCC1(C(=O)N(CC(=O)Nc2ccc3c(c2)C[C@@]2(C3)C(=O)Nc3ncccc32)Cc2ccccc2CNC)CCN(C(=O)N2CC(F)(F)C2)CC1 [Example 109, (R)-1-(3,3-Difluoroazetidine-1-carbonyl)-4-ethyl-N-(2-((methylamino)methyl)benzyl)-N-(2-oxo-2-((2′-oxo-1,1′,2′,3-tetrahydrospiro[indene-2,3′-pyrrolo[2,3-b]pyridin]-5-yl)amino)ethyl)piperidine-4-carboxamide], the IC50 is reported as 7940 nM. With CCC1(C(=O)N(CC(=O)Nc2ccc3c(c2)C[C@@]2(C3)C(=O)Nc3ncccc32)Cc2ccccc2CNC)CCN(C(=O)N2CCC(C(F)(F)F)CC2)CC1 [Example 110, (R)-4-Ethyl-N-(2-((methylamino)methyl)benzyl)-N-(2-oxo-2-((2′-oxo-1,1′,2′,3-tetrahydrospiro[indene-2,3′-pyrrolo[2,3-b]pyridin]-5-yl)amino)ethyl)-1-(4-(trifluoromethyl)piperidine-1-carbonyl)piperidine-4-carboxamide] the IC50 was 93.3 nM. CCC1(C(=O)N(CC(=O)Nc2ccc3c(c2)C[C@@]2(C3)C(=O)Nc3ncccc32)Cc2ccccc2CNC)CCN(C(=O)N2CC(F)C2)CC1 [Example 111, (R)-4-Ethyl-1-(3-fluoroazetidine-1-carbonyl)-N-(2-((methylamino)methyl)benzyl)-N-(2-oxo-2-((2′-oxo-1,1′,2′,3-tetrahydrospiro[indene-2,3′-pyrrolo[2,3-b]pyridin]-5-yl)amino)ethyl)piperidine-4-carboxamide] showed an IC50 of 15.5 nM. CCC1(C(=O)N(CC(=O)Nc2ccc3c(c2)C[C@@]2(C3)C(=O)Nc3ncccc32)Cc2ccccc2CNC)CCN(C(=O)N2CC(C(F)(F)F)C2)CC1 [Example 112, (R)-4-Ethyl-N-(2-((methylamino)methyl)benzyl)-N-(2-oxo-2-((2′-oxo-1,1′,2′,3-tetrahydrospiro[indene-2,3′-pyrrolo[2,3-b]pyridin]-5-yl)amino)ethyl)-1-(3-(trifluoromethyl)azetidine-1-carbonyl)piperidine-4-carboxamide] gave an IC50 of 23.4 nM. CCC1(C(=O)N(CC(=O)Nc2ccc3c(c2)C[C@@]2(C3)C(=O)Nc3ncccc32)Cc2ccccc2CNC)CCN(C(=O)NCC(F)(F)F)CC1 [Example 113, (R)-4-Ethyl-N4-(2-((methylamino)methyl)benzyl)-N4-(2-oxo-2-((2′-oxo-1,1′,2′,3-tetrahydrospiro[indene-2,3′-pyrrolo[2,3-b]pyridin]-5-yl)amino)ethyl)-N1-(2,2,2-trifluoroethyl)piperidine-1,4-dicarboxamide] gave an IC50 of 4.27 nM. Work on CCC1(C(=O)N(CC(=O)Nc2ccc3c(c2)C[C@@]2(C3)C(=O)Nc3ncccc32)Cc2ccccc2CNC)CCN(C(=O)OC(C)C)CC1 [Example 114, (R)-Isopropyl 4-ethyl-4-((2-((methylamino)methyl)benzyl)(2-oxo-2-((2′-oxo-1,1′,2′,3-tetrahydrospiro[indene-2,3′-pyrrolo[2,3-b]pyridin]-5-yl)amino)ethyl)carbamoyl)piperidine-1-carboxylate] yielded an IC50 of 69.2 nM. In the case of CCOC(=O)N1CCC(CC)(C(=O)N(CC(=O)Nc2ccc3c(c2)C[C@@]2(C3)C(=O)Nc3ncccc32)Cc2ccccc2CNC)CC1 [Example 115, (R)-Ethyl 4-ethyl-4-((2-((methylamino)methyl)benzyl)(2-oxo-2-((2′-oxo-1,1′,2′,3-tetrahydrospiro[indene-2,3′-pyrrolo[2,3-b]pyridin]-5-yl)amino)ethyl)carbamoyl)piperidine-1-carboxylate], the IC50 is reported as 24.5 nM. With CCC1(C(=O)N(CC(=O)Nc2ccc3c(c2)C[C@@]2(C3)C(=O)Nc3ncccc32)Cc2ccccc2CNC)CCN(C(=O)OC)CC1 [Example 116, (R)-Methyl 4-ethyl-4-((2-((methylamino)methyl)benzyl)(2-oxo-2-((2′-oxo-1,1′,2′,3-tetrahydrospiro[indene-2,3′-pyrrolo[2,3-b]pyridin]-5-yl)amino)ethyl)carbamoyl)piperidine-1-carboxylate] the IC50 was 20 nM. CCC1(C(=O)N(CC(=O)Nc2ccc3c(c2)C[C@@]2(C3)C(=O)Nc3ncccc32)Cc2ccccc2CNC)CCN(S(=O)(=O)NC)CC1 [Example 117, (R)-4-Ethyl-N-(2-((methylamino)methyl)benzyl)-1-(N-methylsulfamoyl)-N-(2-oxo-2-((2′-oxo-1,1′,2′,3-tetrahydrospiro[indene-2,3′-pyrrolo[2,3-b]pyridin]-5-yl)amino)ethyl)piperidine-4-carboxamide] was tested, and the IC50 was 4.57 nM. CCC1(C(=O)N(CC(=O)Nc2ccc3c(c2)C[C@@]2(C3)C(=O)Nc3ncccc32)Cc2ccccc2CNC)CCN(S(=O)(=O)N(C)C)CC1 [Example 118, (R)-1-(N,N-Dimethylsulfamoyl)-4-ethyl-N-(2-((methylamino)methyl)benzyl)-N-(2-oxo-2-((2′-oxo-1,1′,2′,3-tetrahydrospiro[indene-2,3′-pyrrolo[2,3-b]pyridin]-5-yl)amino)ethyl)piperidine-4-carboxamide] gave an IC50 of 34.7 nM. CNCc1ccccc1CN(CC(=O)Nc1ccc2c(c1)C[C@@]1(C2)C(=O)Nc2ncccc21)C(=O)C1(CC(F)(F)F)CCN(C(C)=O)CC1 [Example 120, (R)-1-Acetyl-N-(2-((methylamino)methyl)benzyl)-N-(2-oxo-2-((2′-oxo-1,1′,2′,3-tetrahydrospiro[indene-2,3′-pyrrolo[2,3-b]pyridin]-5-yl)amino)ethyl)-4-(2,2,2-trifluoroethyl)piperidine-4-carboxamide] was tested, and the IC50 was 22.9 nM. In the case of CNCc1ccccc1CN(CC(=O)Nc1ccc2c(c1)C[C@@]1(C2)C(=O)Nc2ncccc21)C(=O)C1(CC(F)(F)F)CCN(C(=O)N(C)C)CC1 [Example 121, (R)—N1,N1-Dimethyl-N4-(2-((methylamino)methyl)benzyl)-N4-(2-oxo-2-((2′-oxo-1,1′,2′,3-tetrahydrospiro[indene-2,3′-pyrrolo[2,3-b]pyridin]-5-yl)amino)ethyl)-4-(2,2,2-trifluoroethyl)piperidine-1,4-dicarboxamide], the IC50 is reported as 10.5 nM. CNCc1ccccc1CN(CC(=O)Nc1ccc2c(c1)C[C@@]1(C2)C(=O)Nc2ncccc21)C(=O)C1(CC2CC2)CCN(C(C)=O)CC1 [Example 122, (R)-1-Acetyl-4-(cyclopropylmethyl)-N-(2-((methylamino)methyl)benzyl)-N-(2-oxo-2-((2′-oxo-1,1′,2′,3-tetrahydrospiro[indene-2,3′-pyrrolo[2,3-b]pyridin]-5-yl)amino)ethyl)piperidine-4-carboxamide] showed an IC50 of 8.32 nM. CNCc1ccccc1CN(CC(=O)Nc1ccc2c(c1)C[C@@]1(C2)C(=O)Nc2ncccc21)C(=O)C1(C(C)C)CCN(C(C)=O)CC1 [Example 123, (R)-1-Acetyl-4-isopropyl-N-(2-((methylamino)methyl)benzyl)-N-(2-oxo-2-((2′-oxo-1,1′,2′,3-tetrahydrospiro[indene-2,3′-pyrrolo[2,3-b]pyridin]-5-yl)amino)ethyl)piperidine-4-carboxamide] was tested, and the IC50 was 214 nM. Molecule CNCc1ccccc1CN(CC(=O)Nc1ccc2c(c1)C[C@@]1(C2)C(=O)Nc2ncccc21)C(=O)C1(CC(C)C)CCN(C(C)=O)CC1 [Example 125] has an IC50 of 21.4 nM. CNCc1ccccc1CN(CC(=O)Nc1ccc2c(c1)C[C@@]1(C2)C(=O)Nc2ncccc21)C(=O)C1(COC)CCN(C(C)=O)CC1 [Example 126, (R)-1-Acetyl-4-(methoxymethyl)-N-(2-((methylamino)methyl)benzyl)-N-(2-oxo-2-((2′-oxo-1,1′,2′,3-tetrahydrospiro[indene-2,3′-pyrrolo[2,3-b]pyridin]-5-yl)amino)ethyl)piperidine-4-carboxamide] was tested, and the IC50 was 174 nM. In the case of CNCc1ccccc1CN(CC(=O)Nc1ccc2c(c1)C[C@@]1(C2)C(=O)Nc2ncccc21)C(=O)C1(OC)CCN(C(C)=O)CC1 [Example 127, 1-Acetyl-4-methoxy-N-[[2-(methylaminomethyl)phenyl]methyl]-N-[2-oxo-2-[[(3R)-2-oxospiro[1H-pyrrolo[2,3-b]pyridine-3,2′-indane]-5′-yl]amino]ethyl]piperidine-4-carboxamide], the IC50 is reported as 24.5 nM. In the case of CNCc1ccccc1CN(CC(=O)Nc1cc2c(cc1C)CC1(C2)C(=O)Nc2ncccc21)C(=O)C1(C)CCNCC1 (stereo not shown) [Example 128, 4-Methyl-N-(2-((5-methyl-2′-oxo-1,1′,2′,3-tetrahydrospiro[indene-2,3′-pyrrolo[2,3-b]pyridin]-6-yl)amino)-2-oxoethyl)-N-(2-((methylamino)methyl)benzyl)piperidine-4-carboxamide], the IC50 is reported as 87.1 nM. For CNCc1ccccc1CN(CC(=O)Nc1cc2c(cc1C)CC1(C2)C(=O)Nc2ncccc21)C(=O)C1(C)CCN(C(C)=O)CC1 (stereo not shown) [Example 129, Acetyl-4-methyl-N-(2-((5-methyl-2′-oxo-1,1′,2′,3-tetrahydrospiro[indene-2,3′-pyrrolo[2,3-b]pyridin]-6-yl)amino)-2-oxoethyl)-N-(2-((methylamino)methyl)benzyl)piperidine-4-carboxamide], the IC50 was 107 nM. For CC(=O)N1CCC(C)(C(=O)N(CC(=O)Nc2cc3c(cc2C)CC2(C3)C(=O)Nc3ncccc32)Cc2ccccc2CN)CC1 (stereo not shown) [Example 130, 1-Acetyl-N-(2-(aminomethyl)benzyl)-4-methyl-N-(2-((5-methyl-2′-oxo-1,1′,2′,3-tetrahydrospiro[indene-2,3′-pyrrolo[2,3-b]pyridin]-6-yl)amino)-2-oxoethyl)piperidine-4-carboxamide], the IC50 was 69.2 nM. CC1(C(=O)N(CC(=O)Nc2ccc3c(c2)C[C@@]2(C3)C(=O)Nc3ncccc32)Cc2ccccc2CN)CCNCC1 [Example 131, (R)—N-(2-(Aminomethyl)benzyl)-4-methyl-N-(2-oxo-2-((2′-oxo-1,1′,2′,3-tetrahydrospiro[indene-2,3′-pyrrolo[2,3-b]pyridin]-5-yl)amino)ethyl)piperidine-4-carboxamide] was tested, and the IC50 was 302 nM. CC(=O)N1CCC(C)(C(=O)N(CC(=O)Nc2ccc3c(c2)C[C@@]2(C3)C(=O)Nc3ncccc32)Cc2ccccc2CN)CC1 [Example 132, (R)-1-Acetyl-N-(2-(aminomethyl)benzyl)-4-methyl-N-(2-oxo-2-((2′-oxo-1,1′,2′,3-tetrahydrospiro[indene-2,3′-pyrrolo[2,3-b]pyridin]-5-yl)amino)ethyl)piperidine-4-carboxamide] showed an IC50 of 148 nM.

Reference: patent publication US20230036854A1, “HETEROCYCLIC SPIRO-COMPOUNDS AS AM2 RECEPTOR INHIBITORS” (THE UNIVERSITY OF SHEFFIELD, priority 2018, published 2023)
